Source: patent US20240299299A1, “COMPOSITIONS AND METHODS FOR INCREASING THE EFFICACY OF IMMUNOTHERAPIES AND VACCINES” (The Regents of the University of Michigan, priority 2021, published 2024)
Values belong to the molecule of their own block, whether it stands above or below them.

Key:
[1] = Encapsulation of DHB-based prodrugs in lipid-based formulation; format: physicochemical; settings: oleic acid, Tween 80, PBS emulsion
Method: The DHB-based prodrugs were synthesized by the Medicinal Chemistry Core in University of Michigan. To prepare the formulation, the prodrug #201 or #905 (4 mg) was added to the mixture of oleic acid (45 μL) and Tween 80 (25 μL) and incubated overnight to equilibrate and allow the prodrug to dissolve. Then an aqueous phase consisting of PBS buffer was added, and the formulation emulsified by ultrasonication with an ultrasonic processor.

[2] = tested on: immune checkpoint blockers (ICBs); settings: reported in literature; cited from earlier work
OT-I CD8+ T cells [3] = assay: In vitro central memory (Tcm) differentiation of OT-I CD8+ T cells activated with SIINFEKL peptide and IL-2 with metabolites; format: cell-based, mice; settings: day 8; metabolite-supplemented medium (arginine 3 mM, 3-methylhistidine 3 mM, DHB 100 μM, sodium ferulate 100 μM)
Method: FIG. 2: a) OT-I CD8+ T cells were cultured with different metabolites in vitro as indicated, b,c) shown is the frequency of CD44^+CD62L^+ Tcm CD8+ T cells on day 8. d) OT-I CD8+ T cells were activated with α-CD3/α-CD28 antibodies in presence of metabolites as indicated and shown is the Tcm CD8+ T cells on day 7. Data represent the mean±s.e.m. (n=5).
(§1) Splenocytes from OT-I mice were obtained aseptically. The cells were cultured in 96-well plates (1×10^5 cells per well). For Tcm differentiation study, cells were activated with SIINFEKL peptide (4×10^−9M) in the presence of various metabolites (arginine: 3 mM; 3-methylhistidine: 3 mM; N-acetylneuraminate: 100 μM; disodium sebacate: 100 μM; DHB: 100 μM; pantothenate: 100 μM; γ-aminobutyric acid: 100 μM; glycerol: 100 μM; AICAR: 100 μM, sodium ferulate: 100 μM) for 3 days. Then cells were washed three times with T-cell medium and further cultured with IL-2 (10 ng ml^−1; PeproTech) in the presence of metabolites for 5 days. The cells were then washed twice and re-activated with SIINFEKL peptide (10 μM) for 2 h. The suspension cells were collected, blocked with CD16/32 antibody and stained with the fixable viability dye eFluor 450, FITC-CD44 rat anti-human/mouse and PE-CD62L monoclonal antibody. To test if the central memory CD8+ T cells differentiation is dependent on dendritic cells, CD8 T cells isolated from the spleen in OT-I mice were incubated in the 96-well plate, which was precoated with anti-hamster IgG antibody. […] (1 μg mL^−1) and IL-2 (100 U mL^−1) were added into each well in the presence of 3-methylhistidine (3 mM), DHB (100 μM), or sodium ferulate (100 μM) for 2 days. Then cells were washed for three times to remove α-CD3/α-CD28 antibodies and further incubated with metabolites and IL-2 (10 ng ml^−1) for 5 days. Thereafter, cells were collected for central memory CD8^+ T cells analysis. For CD8^+ T cells survival study, cells were activated with antigen peptide as above, following with thoroughly washing, and incubation in presence of IL-2 for 2 days. Metabolites were added during this incubation (arginine: 3 mM, 1 mM; 3-methylhistidine: 3 mM, 1 mM, 500 μM, 100 μM; N-acetylneuraminate: 100 μM; disodium sebacate: 100 μM; DHB: 100 μM, 50 μM, 20 μM; pantothenate: 100 μM; γ-aminobutyric acid: 100 μM; glycerol: 100 μM; AICAR: 100 μM). Then cells were further incubated in absence of both IL-2 and metabolites for 36 h to induce the apoptosis/dead. For Tcf1^+CD8^+ differentiation study, cells were activated with antigen peptide as above, followed by thoroughly washing, and incubation with metabolites in presence of IL-2 for 3 days. […] Tcf1^+CD8^+, CD44^+CD62L^+CD8^+ and survival (stained with Annexin V-APC and PI) T cells were detected via flow cytometry.

OT-I CD8+ T cells [4] = assay: Tcf1+CD8+ differentiation of OT-I T cells with metabolites; format: cell-based, mice; settings: day 6
Method: FIG. 3: a) OT-I CD8+ T cells were cultured with different metabolites in vitro as indicated, b,c) shown are the frequency of the Tcf1^+CD8+ T cells and the representative flow cytometry plots on day 6. Data represent the mean±s.e.m. (n=5).
as §1, with “days.” for “days. Metabolites were added during this incubation (arginine: 3 mM, 1 mM; 3-methylhistidine: 3 mM, 1 mM, 500 μM, 100 μM; N-acetylneuraminate: 100 μM; disodium sebacate: 100 μM; DHB: 100 μM, 50 μM, 20 μM; pantothenate: 100 μM; γ-aminobutyric acid: 100 μM; glycerol: 100 μM; AICAR: 100 μM). Then cells were further incubated in absence of both IL-2 and metabolites for 36 h to induce the apoptosis/dead. For Tcf1^+CD8^+ differentiation study, cells were activated with antigen peptide as above, followed by thoroughly washing, and incubation with metabolites in presence of IL-2 for 3 days.”

- encapsulation in lipid-based dose forms [1]: can be successfully encapsulated
Structure (SMILES): CCOC(=O)Oc1ccc(C(=O)OCC)cc1OC(=O)OCC [Prodrug #905, ethyl 3,4-bis((ethoxycarbonyl)oxy)benzoate]

Structure (SMILES): CN(CC(=O)O)C(=N)N [creatine]
- efficacy of immune checkpoint blockers (ICBs) [2]: improve the efficacy of immune checkpoint blockers

Structure (SMILES): CSCC[C@H](N)C(=O)O [methionine]
- efficacy of immune checkpoint blockers (ICBs) [2]: improve the efficacy of immune checkpoint blockers

Structure (SMILES): COc1cc(/C=C/C(=O)[O-])ccc1O.[Na+] [sodium ferulate]
- differentiation of CD44+CD62L+ central memory CD8+ T cells (OT-I CD8+ T cells [3]): significantly increased the differentiation
- frequency of Tcf1+CD8+ T cells (OT-I CD8+ T cells [4]): increased the frequency
